Reference: patent publication US20240398824A1, “Inhibition Of Rip Kinases For Treating Neurodegenerative Disorders” (The Johns Hopkins University, priority 2018, published 2024)

System: BV-2 microglia
Test: Real-time PCR of C1q, IL-6 and TNFα in AβO-activated BV-2 microglia
Format: cell-based
Parameters: key to mRNA levels of C1q / mRNA levels of IL-6 / mRNA levels of TNFα: relative expression normalized to GAPDH by 2^-ΔΔCt; PBS = 1
Settings: for mRNA levels of IL-6 / mRNA levels of C1q / mRNA levels of TNFα: BV-2 microglia preincubated 1 h with inhibitor 1 μM, then AβO 5 μM 4 h, ±SD; for mRNA levels of IL-6: PBS = 1 ± 0.08, Abeta alone 12.53 ± 0.59; for mRNA levels of C1q: PBS = 1 ± 0.13, Abeta alone 3.7 ± 0.06; for mRNA levels of TNFα: PBS = 1 ± 0.16, Abeta alone 16.19 ± 3.21; for microglial activation / release of multiple inflammatory mediators including C1q, IL-6 and TNFα: inhibitor 1 μM pretreatment, AβO 5 μM, in words
Protocol: Synthetic Abeta1-42 oligomers were generated as previously described (PMID: 27834631). Hydroxyfluroisopropanol (HFIP)-treated synthethic Abeta1-42 peptides (rPeptide, Bogart, GA, USA) were dissolved in dimethylsulfoxide (DMSO) and further diluted in phosphate-buffered saline (PBS) to obtain a 250 μM stock solution. The stock solution was incubated at 4° C. for at least 24 hours and stored at −80° C. until use. Before use, the solution was centrifuged at 12,000 g for 10 minutes and the supernatant was used as an oligomeric Aβ.
BV-2 microglial cells were cultured in DMEM media. 10^6 of BV-2 microglia in 6 well plate were treated with 2.5 μM of Abeta for 4 hrs. Total RNA from cultured cells was extracted with a RNA isolation kit (Qiagen, Valencia, CA, USA) following manufacturer's instructions. RNA concentration was measured spectrophotometrically using a NanoDrop 2000 (Thermo scientific). Subsequently, 2 μg of total RNA was reverse transcribed to cDNA using the High-Capacity cDNA Reverse Transcription System (Life Technologies, Grand Island, NY, USA). Comparative qPCR was performed using fast SYBR Green Master Mix (Life Technologies) and steponeplus real-time pcr system (Applied Biosystems, Foster City, CA, USA). The expression levels of target genes were normalized to the expression of GAPDH and calculated based on the comparative cycle threshold Ct method^−ΔΔ(2) Ct. (n=3)
To examine the effect of RIPK2 inhibition, 10^6 of BV-2 microglia in 6 well plate were preincubated with DMSO, GSK583 (1 μM, Medchemexpress), OD361 (1 μM, Calbiochem), or Sorafenib (1 μM) for one hour. For mRNA analysis, 5 μM of AβO was treated additional for 4 hours.

Clc1cc2cc(c1)-c1cnn3c1NC(=NCCOCCO2)C=C3 [OD36, 6-Chloro-10,11,14,17-tetrahydro-13H-1,16-etheno-4,8-metheno-1H-pyrazolo[3,4-g][1,14,4,6]dioxadiazacyclohexadecine]
mRNA levels of IL-6: 7.64 ± 0.48 | mRNA levels of C1q: 0.85 ± 0.12 | mRNA levels of TNFα: 5.85 ± 0.03 | microglial activation: blocked microglial activation | release of multiple inflammatory mediators including C1q, IL-6 and TNFα: significantly reduced

CNC(=O)c1cc(Oc2ccc(NC(=O)Nc3ccc(Cl)c(C(F)(F)F)c3)cc2)ccn1 [Sorafenib]
mRNA levels of IL-6: 7.13 ± 0.71 | mRNA levels of C1q: 3.3 ± 0.09 | mRNA levels of TNFα: 9.69 ± 0.47 | microglial activation: blocked microglial activation | release of multiple inflammatory mediators including C1q, IL-6 and TNFα: significantly reduced
